From patent US8829014B2, “Thiazole and thiophene analogues, and their use in treating autoimmune diseases and cancers” (Board of Supervisors of Louisiana State University and …, priority 2006, dated 2014)
Marks after values point to notes of the source that are not given here.

What was measured:
Format in all cases: cell-based
[1] = system: eIF4E; assay: eIF4E inhibitor screen: luciferase under FGF 5′UTR in FaDu cells (highly cap-dependent translation); settings: for inhibition of highly cap-dependent translation (summary statement): summary in the disclosure
Excerpt: Since highly cap-dependent translation is associated with synthesis of proteins involved in cancer, a compound that inhibits this pathway may be used as an anti-cancer agent. The assay was developed by cloning the highly structured 5′ UTR of FGF, which requires high levels of eIF4E before protein synthesis can initiate, into the proper orientation of the reporter gene luciferase, and then stably transfecting the modified luciferase gene into the cell line FaDu that is known to have high levels of eIF4E. The activity of luciferase is then monitored in the presence and absence of the tested compound.
Generation of Stable Cell Lines: The pMS110 plasmid (pGL3-control plasmid from Promega which contains a neo selectable marker) was used to generate pMS110-5′UTR by cloning the 5′ UTR of FGF just upstream of the luciferase AUG start codon. FaDu cells, a head and neck cancer cell line, were transfected using Lipofectamine2000 (Invitrogen). Twenty-four hours after transfection G418 was added at 500 μg/ml. Cells were maintained in G418 for 14 days, and then individual colonies were transferred to a 96-well plate for propagation. Individual clones were analyzed for luciferase expression by plating 10^4 cells per well in a 96-well plate for 24 hours before lysing the cells and analyzing for luciferase activity in a Victor III (Perkin Elmer) or Lucy2 (Rosys Anthos). FaDu9000 and FaDuUTR were the clones that expressed the highest level of active luciferase following transfection of pMS110 and pMS110-5′UTR, respectively.
Analysis of Rapamycin Responsiveness: Cells of FaDu9000 and FaDuUTR were plated at 1×10^4 cells/well in a 96-well dish. Twenty-four hours after plating, 0.1% DMSO (vehicle control) or 10 nM rapamycin were added to each well, and the cells were maintained for an additional 24 or 48 hours. The cells were then lysed and luciferase activity was determined using BriteGlo (Promega) as per manufacturer's instruction and recorded using the Victor III. Following subtraction of background activity, the mean value of quadruplicate samples for a given experiment was determined, and the treated cells were normalized to the control. At least four separate experiments were conducted, and the mean and standard error were calculated. To determine if rapamycin affected cell viability, an MTS assay (Cell Proliferation One Solution, Promega) was carried out on each population at 48 hours in two separate experiments.
The FaDu cell line stably transfected with FGF 5′UTR was used to screen thirty-nine representative compounds, each at a concentration of 1.0 μM. Additional cells were treated with vehicle, 0.3% DMSO. Cells were plated for twenty-four hours in a 96-well plate. Each compound was then added to triplicate wells, and the cells were incubated for forty-eight hours before measuring luciferase activity as above. The mean luciferase activity was measured using Promega's Brite-Glo kit, and the mean for each sample was normalized to DMSO. The experiment was then repeated, and the average and standard deviation of the two experiments were determined (FIG. 8).

[2] = system: vascular smooth muscle cells (VSMC); assay: LDH release cytotoxicity in VSMC; settings: rat, 48 h, 10 μM
Method: (§1) Additional compounds have also been tested for their ability to inhibit both TNF-α-induced NF-κB—expression and PMA-induced AP-1 expression. In both tests, the compound was added for 1 h, then the appropriate inducer was added, and luciferase activity was monitored 24 h later. Values were then normalized to the vehicle control, DMSO. Following the initial luciferase screens, studies were conducted to assess the cytotoxicity of the compounds in normal cells such as VSMC, HUVEC, or HPT cells. Human umbilical vein endothelial cells (HUVEC) represent the normal endothelium, vascular smooth muscle cells (VSMC) were represented by cells from the adult rat aorta, and human proximal tubule (HPT) cells represent the normal proximal tubule in vivo. These cells were grown to near confluency in multi-well plates, and were then treated for 48 h with either vehicle (0.1% DMSO) or 10 μM of each drug candidate. Following treatment, the media from the VSMC and HUVEC incubations were removed, and the amount of lactate dehydrogenase (LDH) released into the medium was determined with a commercial kit. LDH is normally confined to the cytosol, and its release represents “leakiness” of the plasma membrane. LDH activity was expressed as % increase over vehicle-treated cells. In another assay of viability, the treated VSMC and HUVEC were removed by trypsinization and treated with trypan blue, a dye that is taken up only by dead cells. The number of both live and dead cells was counted using an automated cell viability analyzer. The % decrease in numbers of viable cells was determined. Toxicity in the treated HPT cells was determined by the ethidium homodimer (EthHD) uptake assay. EthHD is a fluorescent dye that is excluded from live cells, but is taken up by cells that have lost permeability barriers. Inside the cell, EthHD produces a strong fluorescent signal, which is proportional to the number of dead cells. Results were expressed as a % increase in cell death over vehicle-treated cells. The lead compounds were also tested in two pairs of cell lines from either the skin or prostate, one tumorigenic and one non-tumorigenic, to test for any differences in toxicity or heightened sensitivity in the tumorigenic lines. The cells were treated for 48 h with vehicle (0.1% DMSO) or 10 μM of each drug candidate. Following treatment, the viability of the cells was determined by the MTT assay. In this assay, the MTT dye is converted only in viable cells by intracellular enzymes to a colorimetric product that is quantitated by a microplate reader.
(§2) For the results in Table 13, cells were grown to near confluency in multi-well plates, then treated for 48 h with either vehicle (0.1% DMSO) or 10 μM of each drug candidate. Following treatment, the media from the VSMC and HUVEC incubations were removed, and the amount of lactate dehydrogenase (LDH) released into the medium was determined with a commercial kit and expressed as a % increase over vehicle-treated cells. HPT toxicity was determined by the ethidium homodimer (EthHD) uptake assay. Inside the cell, EthHD produces a strong fluorescent signal, which is proportional to the amount of cell death, expressed as a % increase in cell death over vehicle-treated cells. The lead compounds were also tested in two pairs of cell lines from the skin or prostate, one tumorigenic and one non-tumorigenic, to test for differing toxicity or heightened sensitivity in the tumorigenic lines. The cells were treated for 48 h with vehicle (0.1% DMSO) or 10 μM of each drug candidate, and the viability of the cells was determined by the MTT assay, expressed as a % decrease in viability compared to vehicle-treated cells. The in vivo inflammation model measured the % inhibition of rat paw edema induced by carageenan injection.

[3] = system: Human umbilical vein endothelial cells (HUVEC); assay: LDH release cytotoxicity in HUVEC; settings: human, 48 h, 10 μM
Method: as §1, §2

[4] = system: vascular smooth muscle cells (VSMC); assay: Trypan blue viability count in VSMC; settings: rat, 48 h, 10 μM
Method: as §1

Compound | luciferase expression under the control of the FGF 5′UTR ([1]; 1.0 μM, 48 h, FaDu UTR cells, normalized to DMSO (FIG. 8)) | inhibition of luciferase activity (FGF 5′UTR) ([1]; highest concentration tested) | inhibition of highly cap-dependent translation (summary statement) [1] | LDH release % Increase VSMC [2] | LDH release % Increase HUVEC [3] | Viable Cells % Decrease VSMC [4]
Bis-[2-(4-Chloro-phenylamino)-4-benzayl-thiazole-5-yl]-methanone [Example 134] | inhibited luciferase expression | > 60% | capable of inhibiting | – | – | –
CNc1nc(C)c(-c2nc3ccccc3c(=O)n2-c2ccc(Cl)cc2)s1 [Example 244, 2-(4-Methyl-2-methylamino-thiazol-5-yl)-3-(4-chloro-phenyl)-3H-quinazolin-4-one] | – | – | – | 68# % | 124# % | 70# %
COc1ccc(-n2c(-c3sc(Nc4ccc(Cl)cc4)nc3-c3ccccc3)nc3ccccc3c2=O)cc1 [Example 225, 2-[2-(4-Chloro-phenylamino)-4-phenyl-thiazol-5-yl]-3-(4-methoxyphenyl)-3H-quinazolin-4-one] | – | – | capable of inhibiting | – | – | –
